Test results taken from patent US12662473B2, “Inhibitors for programmed cell necrosis and preparation method therefor and use thereof” (SHANGHAI INSTITUTE OF ORGANIC CHEMISTRY, CHINESE ACADEMY OF …, priority 2019, dated 2026).
Like-named read-outs stand apart in the source and are kept apart here.

How the values were obtained:
FADD−/− Jurkat cells = assay: TNF-induced programmed cell necrosis inhibition, Cell Titer-Glo viability; type: cell-based; details: Homo sapiens, Jurkat
Source text: (§1) The adopted biological assay protocol was: the programmed necroptosis effect of compounds on TNF-induced in FADD (Fas-Associated Death Domain) deficient Jurkat cells and L929 cells.
(§2) In order to verify the inhibitory effect of the compounds of the present invention on programmed cell necrosis at the cellular level, cell types closely related to the RIP1 pathway, namely FADD deficient Jurkat cells (human peripheral blood leukemia T cell line) and L929 cells, were selected. Two different stimulation methods were used: tumor necrosis factor (TNFα) used alone, or TNFα used in combination with mitochondria-derived cysteine aspartate activator (SMAC). Cells viability was calculated by detecting chemiluminescence values, and the biological activity of the compound for inhibiting programmed cell necrosis can be obtained.
(§3) Methods: FADD deficient Jurkat cells: FADD deficient Jurkat cells (human peripheral blood leukemia T cell line) were cultured in vitro. After growing to the logarithmic growth phase, the cells were collected, centrifuged at 1000 rpm for 5 min, the supernatant was discarded, and the cell concentration was adjusted to 2.5×10^5/mL. Cells were seeded into 384-well plates, 40 μl per well. 5 μL of Smac (50 nM) diluted in cell culture medium and 5 μL of each compound were added to the corresponding wells. After pretreatment at 37° C. for 1 h, 5 μL of TNFα (50 ng/mL) diluted in cell culture medium was added to each well of the stimulation group, and 5 μL of the culture medium was added to the control group. The plate was cultured in a cell incubator (37° C., 5% CO2) for 14 h, and 15 μl of Cell Titer-Glo solution was added to each well, then incubated for 30 min at room temperature, and intracellular ATP level was measured by detecting luminescence. The unstimulated DMSO control wells were taken as 100% cell viability. L929 cells: The L929 cells (mouse fibroblasts) were cultured in vitro, digested and diluted to 6.25×10^4/ml, and the cells were seeded into 384-well plates, 40 μl per well. The plate was placed in a cell incubator (37° C., 5% CO2) for 12 hours. 5 μL of Smac (500 nM) diluted in cell culture medium and 5 μL of each compound were added to the corresponding wells. After pretreatment at 37° C. for 1 h, 5 μL of TNFα (500 ng/mL) diluted in cell culture medium was added to each well of the stimulation group, and 5 μL of the culture medium was added to the control group. After the plate was cultured for 14 h in a cell incubator (37° C., 5% CO2), 15 μl of Cell Titer-Glo solution was added to each well. The plate was incubated at room temperature for 30 min, and intracellular ATP level was measured by detecting luminescence. The unstimulated DMSO control wells were taken as 100% cell viability. EC50 values of the compounds were calculated using Prism Graphpad statistical software.
FADD deficient Jurkat cells: FADD deficient Jurkat cells (human peripheral blood leukemia T cell line) were cultured in vitro. After growing to the logarithmic growth phase, the cells were collected, centrifuged at 1000 rpm for 5 min, the supernatant was discarded, and the cell concentration was adjusted to 2.5×10^5/mL. Cells were seeded into 384-well plates, 40 μl per well. 5 μL of Smac (50 nM) diluted in cell culture medium and 5 μL of each compound were added to the corresponding wells. After pretreatment at 37° C. for 1 h, 5 μL of TNFα (50 ng/mL) diluted in cell culture medium was added to each well of the stimulation group, and 5 μL of the culture medium was added to the control group. After the plate was cultured in a cell incubator (37° C., 5% CO2) for 14 h, 15 μl of Cell Titer-Glo solution was added to each well. The mixture was incubated for 30 min at room temperature, and intracellular ATP level was measured by detecting luminescence. The unstimulated DMSO control wells were taken as 100% cell viability.

L929 cells = assay: as above; type: cell-based, mouse; details: Mus musculus, read-out: EC50 inhibitory activity on programmed cell necrosis
Source text: as §1, §2, §3
L929 cells: The L929 cells (mouse fibroblasts) were cultured in vitro, digested and diluted to 6.25×10^4/ml, and the cells were seeded into 384-well plates, 40 μl per well. The plate was placed in a cell incubator (37° C., 5% CO2) for 12 hours. 5 μL of Smac (500 nM) diluted in cell culture medium and 5 μL of each compound were added to the corresponding wells. After pretreatment at 37° C. for 1 h, 5 μL of TNFα (500 ng/mL) diluted in cell culture medium was added to each well of the stimulation group, and 5 μL of the culture medium was added to the control group. After the plate was cultured for 14 h in a cell incubator (37° C., 5% CO2), and 15 μl of Cell Titer-Glo solution was added to each well, then incubated at room temperature for 30 min, and intracellular ATP level was measured by detecting luminescence. The unstimulated DMSO control wells were taken as 100% cell viability.

[1] = 14 h, TNFa + SM164, read-out: EC50 inhibitory activity on programmed cell necrosis
[2] = TNFa, read-out: EC50 inhibitory activity on programmed cell necrosis
[3] = L929, 14 h, L929 cells (mouse), TNFa + SM164

SMILES | EC50 (FADD−/− Jurkat cells; [1]) | EC50 (FADD−/− Jurkat cells; [2]) | EC50 (L929 cells; [3]) | EC50 (L929 cells; L929, L929 cells (mouse), TNFa)
CNC(=O)c1ccc(OC(C)(C)C(=O)N2CCCC2c2ccc(C)cc2)c(F)c1 (stereo not drawn) [QY-6-63] | > 10000 nM | 4290 nM | 7800 nM | 3150 nM
CC(C)(Oc1ccc(Cl)cc1)C(=O)N1CCC[C@H]1c1ccccc1 [QY-6-83] | 613 nM | 56 nM | 323 nM | 40 nM
CC(C)(Oc1ccc(Cl)cc1F)C(=O)N1CCC[C@H]1c1ccccc1 [QY-6-84] | 439 nM | 27 nM | 216 nM | 25 nM
[2H]c1c([2H])c([C@]2([2H])CCCN2C(=O)C(C)(C)Oc2ccc(Cl)cc2F)c([2H])c([2H])c1C([2H])([2H])[2H] [QY-7-7] | 200 nM | 5 nM | 24 nM | 1 nM
COc1cc(OC(C)(C)C(=O)N2N=CCC2c2ccc(C)cc2)ccc1Cl (stereo not drawn) [QY-7-101] | 1100 nM | 630 nM | 10 nM | 11 nM
CC(C)(Oc1ccc(Cl)cc1F)C(=O)N1N=CCC1c1ccc(Cl)cc1 (stereo not drawn) [QY-8-101] | 692 nM | 15 nM | 15 nM | 5.8 nM
COc1cc(Cl)ccc1OC(C)(C)C(=O)N1CCCC1c1ccc(C)cc1 (stereo not drawn) [QY-9-8] | 1.6 nM | 0.43 nM | 138 nM | 0.44 nM
COc1cc(Cl)ccc1OC(C)(C)C(=O)N1N=CCC1c1ccc(Cl)cc1 (stereo not drawn) [QY-9-32] | 842 nM | 26.6 nM | – | 35.7 nM
COc1cc(Cl)ccc1OC(C)(C)C(=O)N1CCCC1c1ccc(Cl)cc1 (stereo not drawn) [QY-9-43] | 1150 nM | 0.16 nM | – | 21 nM
COc1cc(Cl)ccc1OC(C)(C)C(=O)N1CCC[C@H]1c1ccc(Cl)cc1 [QY-10-1] | > 10000 nM | > 10000 nM | 3.6 nM | 0.79 nM
CC(=O)Nc1cc(Cl)ccc1OC(C)(C)C(=O)N1CCCC1c1ccc(Cl)cc1 (stereo not drawn) [QY-10-92] | > 10000 nM | > 10000 nM | > 10000 nM | > 10000 nM
COc1cc(Cl)ccc1OC(C)(C)C(=O)N1N=CCC1c1ccc(C)cc1 (stereo not drawn) [QY-10-96] | 633 nM | 13.4 nM | 6.31 nM | 0.151 nM
COc1cc(Cl)ccc1NC(C)(C)C(=O)N1CCCC1c1ccc(Cl)cc1 (stereo not drawn) [QY-10-104] | 794 nM | 106 nM | 66.2 nM | 13.6 nM
[2H]c1c([2H])c([C@]2([2H])CCCN2C(=O)C(C)(C)Oc2ccc(Cl)cc2OC)c([2H])c([2H])c1C([2H])([2H])[2H] [QY-11-1] | – | 4.05 nM | 2.66 nM | 0.0803 nM
CC(C)(C(=O)N1CCCC1c1ccc(Cl)cc1)C1N=Nc2ccc(Cl)cc21 (stereo not drawn) [QY-11-9A] | > 10000 nM | > 10000 nM | > 10000 nM | 2530 nM
CC(C)(C(=O)N1CCCC1c1ccc(Cl)cc1)n1ncc2cc(Cl)ccc21 (stereo not drawn) [QY-11-9B] | 3340 nM | 2830 nM | 3440 nM | 0.00171 nM
CC(C)(C(=O)N1CCCC1c1ccc(Cl)cc1)n1nnc2ccc(Cl)cc21 (stereo not drawn) [QY-11-11A] | > 10000 nM | > 10000 nM | 0.0772 nM | 0.0188 nM
CC(C)(C(=O)N1CCCC1c1ccc(Cl)cc1)n1nnc2cc(Cl)ccc21 (stereo not drawn) [QY-11-11B] | > 10000 nM | > 10000 nM | 0.12 nM | 0.0192 nM
